Results reported in patent US10988477B2 (Merck Patent GmbH, priority 2018, dated 2021).
Like-named read-outs stand apart in the source and are kept apart here.

What was measured:
GCN2 kinase = GCN2 kinase (Homo sapiens, UniProt Q9P2K8); assay: GCN2 enzyme inhibition assay (Transcreener ADP2 fluorescence polarization); assay type: biochemical; conditions: 280 μM ATP
How it was run: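 Run at 25 °C in 25 mM Tris-HCl pH 7.5, 50 mM NaCl, 10 mM MgCl2, 1 mM DTT with 4 nM GCN2, 280 μM ATP and 200 μM (RS)7 peptide; compound (0–8 μM final) preincubated 10 min, reaction 1 h. ADP read by antibody/tracer FP; IC50 and Ki(app) from tight-binding fit.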

[1] = biological target: intracellular GCN2 (phosphorylation of the GCN2 substrate eIF2α) (Homo sapiens, UniProt Q9P2K8); assay: GCN2 cellular inhibition assay (AlphaScreen SureFire P-eIF2α Ser51, borrelidin-treated U2OS cells); assay type: cell-based
Procedure: Compounds can be screened for their ability to inhibit intracellular GCN2 using an AlphaScreen assay (Perkin Elmer) to detect phosphorylation of the GCN2 substrate eIF2α in borrelidin-treated cells. U2OS cells are plated at 5,000 cells per well in 384-well white polystyrene plates (Corning 3570) in McCoy's 5 A media (GIBCO 26600-023) supplemented with 10% foetal bovine serum (SAFC 12103C), Penicillin/Streptomycin solution diluted 1:100 (Sigma P0781), and 2 mM L-glutamine (Sigma G7513), and allowed to adhere overnight at 37° C. in 5% CO2. Compounds are then added to the cell media from a final concentration of 40 μM in 4-fold serial dilutions. Borrelidin (FluoroChem M01440) is immediately added to the wells to a final concentration of 10 μM and the cells are incubated for 1 h at 37° C. in 5% CO2. After 1 h of treatment with borrelidin, the media is removed, and the cells are lysed with lysis buffer (TGR BioSciences TGRLB) at ambient temperature.
An AlphaScreen SureFire P-eIF2α (Ser51) assay kit (Perkin Elmer TGREIF2S) was used to measure levels of eIF2α phosphorylated on Serine 51. Anti-phosphorylated eIF2α Ser51 antibody-linked acceptor beads (TGR BioScience 6760617) are added to the cell homogenate (diluted 1:250 into a mixture of activation (TGR BioScience TGRAB) and reaction buffer (TGR BioScience TGREIF2S) prepared immediately before use). The plate is then incubated for 2 h at ambient temperature in the dark. Anti-eIF2α antibody-linked donor beads (TGR BioScience 6760617) were then added (diluted 1:100 in dilution buffer (TGR BioScience TGRDB) prepared immediately before use). The plate is then incubated overnight at ambient temperature in the dark.
Plates are analyzed on an Alpha Technology-compatible PHERAstar FS plate reader (BMG Labtech Version 1.14) to quantify phosphorylated eIF2α Ser51 levels. The percentage inhibition of phosphorylated eIF2α is calculated by comparison to control wells stimulated with borrelidin alone.

[2] = compounds of Formula II, 4 nM GCN2 kinase
[3] = compounds of Formula II, biomarker assay, phosphorylated eIF2α Ser51 in borrelidin-treated U2OS cells
[4] = Enzyme activity for compounds of Formula IV, Ki(app), 25° C.
[5] = compounds of Formula IV, biomarker assay, phosphorylated eIF2α Ser51 in borrelidin-treated U2OS cells

Chain of GCN2 kinase (Q9P2K8 whole entry): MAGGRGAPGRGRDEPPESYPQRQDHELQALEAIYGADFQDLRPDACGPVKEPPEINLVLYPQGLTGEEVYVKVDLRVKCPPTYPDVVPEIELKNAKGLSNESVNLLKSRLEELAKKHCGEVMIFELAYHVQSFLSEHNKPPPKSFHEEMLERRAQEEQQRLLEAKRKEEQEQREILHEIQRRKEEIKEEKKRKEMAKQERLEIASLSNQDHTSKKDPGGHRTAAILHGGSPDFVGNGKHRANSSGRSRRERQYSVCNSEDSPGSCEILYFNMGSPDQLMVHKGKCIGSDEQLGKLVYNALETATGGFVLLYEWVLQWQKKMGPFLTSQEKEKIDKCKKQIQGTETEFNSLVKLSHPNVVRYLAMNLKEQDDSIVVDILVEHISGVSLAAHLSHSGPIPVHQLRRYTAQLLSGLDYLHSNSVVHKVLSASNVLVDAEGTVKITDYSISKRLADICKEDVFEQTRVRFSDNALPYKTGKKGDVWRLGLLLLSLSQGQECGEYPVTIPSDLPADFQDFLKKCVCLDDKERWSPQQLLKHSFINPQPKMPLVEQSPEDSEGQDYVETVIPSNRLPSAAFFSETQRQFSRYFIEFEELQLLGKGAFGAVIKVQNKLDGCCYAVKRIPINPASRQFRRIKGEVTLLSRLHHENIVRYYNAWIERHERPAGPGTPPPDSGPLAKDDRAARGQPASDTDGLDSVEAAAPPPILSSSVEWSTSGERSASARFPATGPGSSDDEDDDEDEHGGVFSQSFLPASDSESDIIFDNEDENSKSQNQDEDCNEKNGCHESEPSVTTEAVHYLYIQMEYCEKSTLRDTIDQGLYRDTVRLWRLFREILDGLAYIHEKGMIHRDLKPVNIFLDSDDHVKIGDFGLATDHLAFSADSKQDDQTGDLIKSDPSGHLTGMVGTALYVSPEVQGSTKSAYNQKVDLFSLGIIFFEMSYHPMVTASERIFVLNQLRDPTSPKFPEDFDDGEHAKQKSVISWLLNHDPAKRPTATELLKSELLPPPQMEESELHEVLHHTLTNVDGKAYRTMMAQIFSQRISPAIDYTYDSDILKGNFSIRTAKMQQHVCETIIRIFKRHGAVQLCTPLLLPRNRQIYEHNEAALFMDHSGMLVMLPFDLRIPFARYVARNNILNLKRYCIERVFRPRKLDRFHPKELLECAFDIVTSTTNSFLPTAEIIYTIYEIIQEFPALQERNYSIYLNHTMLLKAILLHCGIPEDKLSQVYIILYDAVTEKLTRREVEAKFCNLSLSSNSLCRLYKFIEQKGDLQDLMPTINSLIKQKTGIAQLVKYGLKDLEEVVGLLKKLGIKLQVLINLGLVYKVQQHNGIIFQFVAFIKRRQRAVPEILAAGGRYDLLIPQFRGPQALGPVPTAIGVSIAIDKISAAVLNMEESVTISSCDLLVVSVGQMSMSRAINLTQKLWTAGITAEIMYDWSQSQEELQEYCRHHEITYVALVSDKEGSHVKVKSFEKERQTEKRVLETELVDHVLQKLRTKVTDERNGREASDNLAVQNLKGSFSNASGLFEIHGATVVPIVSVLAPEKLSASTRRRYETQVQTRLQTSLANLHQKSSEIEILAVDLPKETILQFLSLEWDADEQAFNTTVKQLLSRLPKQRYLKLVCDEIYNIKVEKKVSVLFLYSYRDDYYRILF
Chain of intracellular GCN2 (phosphorylation of the GCN2 substrate eIF2α) (Q9P2K8 whole entry): as above

Row | SMILES | Ki (GCN2 kinase; [2]) [nM] | IC50 [1, 3] [nM] | Ki (GCN2 kinase; [4]) [nM] | IC50 [1, 5] [nM] | further results
1 | NC(=O)NCC1CCCN(c2cc(-c3cnc4ccc(C(F)F)nn34)ncn2)C1 (stereo not shown) [II-215, 1-((1-(6-(6-(Difluoromethyl)imidazo[1,2-b]pyridazin-3-yl)pyrimidin-4-yl)piperidin-3-yl)methyl)urea] | 10 to 1000 | 500 to 5000 | – | – | –
2 | CC1CCC(CNS(C)(=O)=O)CN1c1cc(-c2cnc3ccc(C(F)F)nn23)ncn1 (stereo not shown) [II-248, N-((1-(6-(6-(Difluoromethyl)imidazo[1,2-b]pyridazin-3-yl)pyrimidin-4-yl)-6-methylpiperidin-3-yl)methyl)methanesulfonamide] | 10 to 1000 | 500 to 5000 | – | – | –
3 | CS(=O)(=O)NCC1CCCN(c2cc(-c3cnc4ccc(C(F)F)nn34)cc(N3CCNCC3)n2)C1 (stereo not shown) [II-96, N-((1-(4-(6-(Difluoromethyl)imidazo[1,2-b]pyridazin-3-yl)-6-(piperazin-1-yl)pyridin-2-yl)piperidin-3-yl)methyl)methanesulfonamide] | < 10 | 500 to 5000 | – | – | –
4 | NS(=O)(=O)N1CCC2CCN(c3cc(-c4cnc5ccc(C(F)F)nn45)ncn3)C2C1 (stereo not shown) [II-344, 1-(6-(6-(Difluoromethyl)imidazo[1,2-b]pyridazin-3-yl)pyrimidin-4-yl)octahydro-6H-pyrrolo[2,3-c]pyridine-6-sulfonamide] | < 10 | < 500 | – | – | –
5 | O=C1NCCC12CCCN(c1cc(-c3cnc4ccc(C(F)F)nn34)ncn1)C2 (stereo not shown) [II-51, 7-(6-(6-(Difluoromethyl)imidazo[1,2-b]pyridazin-3-yl)pyrimidin-4-yl)-2,7-diazaspiro[4.5]decan-1-one] | 10 to 1000 | 500 to 5000 | – | – | –
6 | C[C@H]1CN(c2ccnc(-c3cnc4sc(C(F)F)cn34)n2)C[C@@H](CNS(C)(=O)=O)C1(F)F (stereo in doubt) [Compound V-1, N-((-1-(2-(2-(Difluoromethyl)imidazo[2,1-b]thiazol-5-yl)pyrimidin-4-yl)-4,4-difluoro-5-methylpiperidin-3-yl)methyl)methanesulfonamide] | – | – | – | – | Ki (GCN2 kinase; compounds of Formula V, 4 nM GCN2 kinase): < 10 nM; IC50 ([1]; compounds of Formula V, U2OS cells, 10 μM borrelidin, 1 h, read-out: GCN2 Biomarker (IC50)): 500 to 5000 nM
7 | CS(=O)(=O)NC[C@H]1CN(c2cc(-c3cnc4ccc(C(F)F)nn34)ncn2)C[C@H](C(F)(F)F)O1 [II-330, N-(((2R,6R)-4-(6-(6-(Difluoromethyl)imidazo[1,2-b]pyridazin-3-yl)pyrimidin-4-yl)-6-(trifluoromethyl)morpholin-2-yl)methyl)methanesulfonamide] | 10 to 1000 | 500 to 5000 | – | – | –
8 | NC(=O)c1ccc2ncc(-c3cc(N4CCN5C(=O)CCCC5C4)ncn3)n2n1 (stereo not shown) [II-727, 3-[6-(6-Oxo-3,4,7,8,9,9a-hexahydro-1H-pyrido[1,2-a]pyrazin-2-yl)pyrimidin-4-yl]imidazo[1,2-b]pyridazine-6-carboxamide] | 10 to 1000 | > 5000 | – | – | –
9 | OCCn1cc(-c2cc(-c3cnc4ccc(C(F)F)nn34)ccn2)cn1 [II-113, 2-(4-(4-(6-(Difluoromethyl)imidazo[1,2-b]pyridazin-3-yl)pyridin-2-yl)-1H-pyrazol-1-yl)ethanol] | 10 to 1000 | 500 to 5000 | – | – | –
10 | CS(=O)(=O)NCC1CCCN(c2ccnc(-c3cnc4ccc(C(F)F)nn34)c2)C1 (stereo not shown) [II-125, N-((1-(2-(6-(Difluoromethyl)imidazo[1,2-b]pyridazin-3-yl)pyridin-4-yl)piperidin-3-yl)methyl)methanesulfonamide] | < 10 | < 500 | – | – | –
11 | CS(=O)(=O)NCC1CCCN(c2cc(-c3cnc4ccc(C(F)F)nn34)c(Cl)cn2)C1 (stereo not shown) [II-730, N-((1-(5-Chloro-4-(6-(difluoromethyl)imidazo[1,2-b]pyridazin-3-yl)pyridin-2-yl)piperidin-3-yl)methyl)methanesulfonamide] | 10 to 1000 | 500 to 5000 | – | – | –
12 | O=C1CN(CC2CCN(c3cc(-c4cnc5ccc(C(F)F)nn45)ncn3)C2)CCN1 (stereo not shown) [II-353, 4-((1-(6-(6-(Difluoromethyl)imidazo[1,2-b]pyridazin-3-yl)pyrimidin-4-yl)pyrrolidin-3-yl)methyl)piperazin-2-one] | 10 to 1000 | > 5000 | – | – | –
13 | CS(=O)(=O)NC[C@H]1CCCN(c2cc(-c3cnc4ccc(C(F)F)nn34)ccn2)C1 [II-154, (S)—N-((1-(4-(6-(Difluoromethyl)imidazo[1,2-b]pyridazin-3-yl)pyridin-2-yl)piperidin-3-yl)methyl)methanesulfonamide] | < 10 | < 500 | – | – | –
14 | CC(NS(C)(=O)=O)C1CN(c2cc(-c3cnc4ccc(C(F)F)nn34)ncn2)CCN1 (stereo not shown) [II-465, N-(1-(4-(6-(6-(Difluoromethyl)imidazo[1,2-b]pyridazin-3-yl)pyrimidin-4-yl)piperazin-2-yl)ethyl)methanesulfonamide] | 10 to 1000 | 500 to 5000 | – | – | –
15 | CS(C)(=O)=NC1CCCN(c2cc(-c3cnc4ccc(C(F)(F)F)nn34)ncn2)C1 (stereo not shown) [II-407, Dimethyl((1-(6-(6-(trifluoromethyl)imidazo[1,2-b]pyridazin-3-yl)pyrimidin-4-yl)piperidin-3-yl)imino)-λ^6-sulfanone] | 10 to 1000 | > 5000 | – | – | –
16 | CC1CN(c2cc(-c3cnc4ccc(C#N)nn34)ncn2)C(C)C(c2cn[nH]c2)N1 (stereo not shown) [II-693] | 10 to 1000 | 500 to 5000 | – | – | –
17 | CS(C)(=O)=NC1CC(C(F)(F)F)CN(c2cc(-c3cnc4ccc(C(F)F)nn34)ncn2)C1 (stereo not shown) [II-695, ((1-(6-(6-(Difluoromethyl)imidazo[1,2-b]pyridazin-3-yl)pyrimidin-4-yl)-5-(trifluoromethyl)piperidin-3-yl)imino)dimethyl-λ^6-sulfanone] | < 10 | 500 to 5000 | – | – | –
18 | CC1CC(C(N)=O)C(C)N(c2cc(-c3cnc4ccc(C(F)(F)F)nn34)ncn2)C1 (single isomer, unassigned) [II-717, 2,5-Dimethyl-1-[6-[6-(trifluoromethyl)imidazo[1,2-b]pyridazin-3-yl]pyrimidin-4-yl]piperidine-3-carboxamide] | < 10 | < 500 | – | – | –

Continued, in another order:

Row | Ki (GCN2 kinase; [2]) [nM] | IC50 [1, 3] [nM] | Ki (GCN2 kinase; [4]) [nM] | IC50 [1, 5] [nM] | SMILES | further results
19 | – | – | 100 to 1000 | > 5000 | O=C(c1cccc(-c2ccnc(-c3cnc4cnc(C(F)F)cn34)n2)c1)N1CCNCC1 [IV-150, (3-(2-(6-(Difluoromethyl)imidazo[1,2-a]pyrazin-3-yl)pyrimidin-4-yl)phenyl)(piperazin-1-yl)methanone] | –
20 | – | – | < 10 | < 500 | C[C@H]1CN(c2ccnc(-c3cnc4cnc(C(F)(F)F)cn34)n2)[C@@H](C)[C@@H](c2cn[nH]c2)N1 [IV-224, 3-(4-((2S,3R,5S)-2,5-dimethyl-3-(1H-pyrazol-4-yl)piperazin-1-yl)pyrimidin-2-yl)-6-(trifluoromethyl)imidazo[1,2-a]pyrazine] | –
21 | – | – | 100 to 1000 | > 5000 | CC1CN(c2ccnc(-c3cnc4cnc(C(F)F)cn34)n2)CC(C)O1 (stereo not shown) [IV-119, 4-(2-(6-(Difluoromethyl)imidazo[1,2-a]pyrazin-3-yl)pyrimidin-4-yl)-2,6-dimethylmorpholine] | –
22 | – | – | 100 to 1000 | > 5000 | CC1(C(N)=O)CCCN(c2ccnc(-c3cnc4cnc(C(F)F)cn34)n2)C1 (stereo not shown) [IV-57, 1-(2-(6-(Difluoromethyl)imidazo[1,2-a]pyrazin-3-yl)pyrimidin-4-yl)-3-methylpiperidine-3-carboxamide] | –
23 | – | – | 100 to 1000 | 500 to 5000 | CC1CN(c2nccc(-c3cnc4cnc(Br)cn34)n2)C(C)C(c2cn[nH]c2)N1 (single isomer, unassigned) [IV-404, 6-Bromo-3-(2-(2,5-dimethyl-3-(1H-pyrazol-4-yl)piperazin-1-yl)pyrimidin-4-yl)imidazo[1,2-a]pyrazine] | –
24 | – | – | 100 to 1000 | > 5000 | CS(=O)(=O)N1CCC2(CCN(c3ccnc(-c4cnc5cnc(C(F)F)cn45)n3)C2)CC1 [IV-145, 2-(2-(6-(Difluoromethyl)imidazo[1,2-a]pyrazin-3-yl)pyrimidin-4-yl)-8-(methylsulfonyl)-2,8-diazaspiro[4.5]decane] | –
25 | – | – | > 1000 | > 5000 | N#Cc1ccc(C(=O)N[C@H]2CCCN(c3ccnc(-c4cnc5cnc(C(F)(F)F)cn45)n3)C2)cc1 [IV-743] | –
26 | – | – | < 10 | > 5000 | Cc1[nH]ncc1C1CCCN(c2ccnc(-c3cnc4cnc(C(F)(F)F)cn34)n2)C1 (single isomer, unassigned) [IV-470, 3-(4-(3-(5-Methyl-1H-pyrazol-4-yl)piperidin-1-yl)pyrimidin-2-yl)-6-(trifluoromethyl)imidazo[1,2-a]pyrazine] | –
